# In patent publication US4720387A (priority 1983, dated 1988):
# Experiments:
# [1] = blood-level and excretion of native pinacidil; type: in vivo, inpatients suffering from hypertension
# [2] = in vivo; cited from earlier work
# [3] = in vivo
# From the text: [referred to Exp. 6-II), Table 12].
# The frequency of the adverse reaction was compared between the two groups.
# [4] = adverse reaction at various dosages in inpatients; type: in vivo, inpatients suffering from hypertension; settings: higher dosage affording sufficient therapeutic time
# [5] = relationship between antihypertensive effect and blood-level of pinacidil; design: species or system inpatients suffering from hypertension; settings: in vivo
# From the text: The term ΔMBP means the difference between the values of Mean Blood Pressure before and after the administration, and FIGS. 1 and 2 show the average of blood-levels or ΔMBP on the five inpatients.
smiles,measurement,setting,value
"CC(N/C(=N\C#N)Nc1ccncc1)C(C)(C)C (stereo not drawn) [pinacidil, N""-cyano-N-4-pyridyl-N'-1,2,2-trimethylpropylguanidine]",time the effective blood-level is kept,[1]; highest dosage of unprepared pinacidil to avoid the adverse reaction,about 6 hours
same,half-life,"[1]; human, blood, administered after a meal, read-out: biological half-life period",1 to 2 h
same,Tmax,"[1]; human, blood, administered after a meal, read-out: time to maximum concentration",1 to 3 h
same,dose proportionality of blood-level,[2],increases in proportion to its dose level
same,blood-level at which side-effects (headache) occasionally occur,[3],over 100 ng/ml
same,maximum safety level (blood-level),[3],100 ng/mL
same,adverse reaction at higher dosage,[4],usually induced the adverse reaction (i.e. headache)
same,blood-level at which the antihypertensive effect was minimum (minimum effective blood-level),[5],around 20 ng/ml
same,blood-level at which the antihypertensive effect was satisfactory,[5],over 30 ng/ml
